Key:
Type in all cases: in vivo
[1] = system: cattle tick larvae (Rhipicephalus microplus), strain Parkhurst, resistant against synthetic pyrethroids; assay: Rhipicephalus (Boophilus) microplus in-vitro contact test, larval cattle tick; conditions: 5 μg/cm^2 (=500 g/ha), after 48 hours, read-out: efficacy (larvae dead or moribund)
In short: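 Efficacy, 100% meaning all larvae dead or moribund, was judged at 48 h from loss of negative geotactic climbing. Larvae of the Parkhurst strain, 20–50 per tube, were exposed at 27° C and 85% humidity to acetone-coated tube surfaces; 900 ppm corresponded to 5 μg/cm^2.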

[2] = system: adult engorged female ticks (Rhipicephalus microplus); assay: Rhipicephalus (Boophilus) microplus injection test; conditions: 168 h, egg deposition after 7 days, read-out: efficacy (infertile eggs); for pest or weed control at 0.004 mg: 4 μg/animal; for pest or weed control at 0.02 mg: 20 μg/animal
In short: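 Efficacy is the share of infertile eggs: 100% means none are fertile, 0% means all are fertile. Egg deposition was checked 7 days after injecting 1 μL of DMSO-diluted compound into the abdomen of five engorged female R. microplus, with doubtful eggs kept about 42 days to hatching. The stock was 10 mg in 0.5 mL DMSO.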

[3] = system: adult cat fleas (Ctenocephalides felis); assay: Ctenocephalides felis in-vitro contact test, adult cat flea; conditions: 5 μg/cm^2 (=500 g/ha), after 48 hours, read-out: efficacy (fleas dead or moribund)
Protocol: (§1) 9 mg compound is solved in 1 mL acetone and diluted with acetone to the desired concentration. 250 μL of the test solution is filled in 25 mL glass test tubes and homogeneously distributed on the inner walls by rotation and tilting on a shaking device (2 h at 30 rpm). With a compound concentration of 900 ppm, an inner surface of 44.7 cm^2 and a homogeneous distribution, a dose of 5 μg/cm^2 is achieved.
After the solvent has evaporated, each test tube is filled with 5-10 adult cat fleas (Ctenocephalides felis), closed with a perforated lid and incubated in a lying position at room temperature and relative humidity. After 48 hours efficacy is determined. The fleas are patted on the ground of the tubes and are incubated on a heating plate at 45-50° C. for at most 5 minutes. Immotile or uncoordinated moving fleas, which are not able to escape the heat by climbing upwards, are marked as dead or moribund.
An efficacy of 100% means all fleas are dead or moribund; 0% means no fleas are dead or moribund.

[4] = system: larvae of the banded cucumber beetle (Diabrotica balteata); assay: Diabrotica balteata spray test; conditions: 168 h, after 7 days, wheat seeds, read-out: efficacy (seedlings grown up); for pest or weed control at 32 µg/disc, 100 g/ha: 100 g/ha (=32 μg/well)
In short: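 Efficacy (%) read at day 7: 100% means seedlings grew like untreated, uninfested controls; 0% means no seedlings grew. Wheat seeds germinated 1 day on agar, sprayed with emulsified compound solution (1000 ppm emulsifier in water), then each well infested with 10-20 larvae.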

[5] = system: green peach aphid (Myzus persicae); assay: Myzus persicae oral test; conditions: 120 h
Protocol: Solvent: 100 parts by weight acetone
To produce a suitable preparation of active compound, 1 part by weight of active compound is mixed with the stated amount of solvent, and the concentrate is diluted with water to the desired concentration.
50 μL compound solution is filled in microtiter plates and 150 μL IPL41 insect medium (33%+15% sugar) is added to obtain a total volume of 200 μL per well. Afterwards the plates are sealed with parafilm through which a mixed population of the green peach aphid (Myzus persicae) can suck on the compound preparation.
After 5 days mortality in % is determined. 100% means all aphids have been killed and 0% means none of the aphids have been killed.

[6] = system: larvae of the southern green stink bug (Nezara viridula); assay: Nezara viridula spray test; conditions: in Hordeum vulgare, 96 h
In short: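 Percent mortality of southern green stink bug larvae read 4 days after spraying infested Hordeum vulgare. Test solutions: compound in acetone plus dimethylformamide, diluted with emulsifier-containing water (1000 ppm alkylarylpolyglycol ether).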

[7] = system: fall armyworm larvae (Spodoptera frugiperda); assay: Spodoptera frugiperda spray test (maize leaf sections); conditions: 168 h
In short: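 Percent kill of Spodoptera frugiperda larvae was recorded 7 days after infesting dried, treated maize leaf sections. Spray solutions were made from an acetone/DMF compound preparation diluted with 1000 ppm emulsifier-containing water.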

[8] = system: adult unfed cat fleas (Ctenocephalides felis); assay: Ctenocephalides felis oral test; conditions: 48 h, 100 ppm in cattle blood, after 2 days
In short: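 Percent flea mortality recorded at 2 days. Compound was dissolved in dimethyl sulfoxide and diluted into cattle blood, which ~20 unfed adult cat fleas ingested through parafilm from a 37°C-heated chamber, their own chamber kept at room temperature.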

[9] = system: adult brown dog ticks (Rhipicephalus sanguineus); assay: Rhipicephalus sanguineus in-vitro contact test with adult brown dog ticks; conditions: after 48 hours, read-out: efficacy (ticks dead or moribund); for pest or weed control at 1 µg/cm2, 100 g/ha: 1 μg/cm^2 (=100 g/ha); for pest or weed control at 5 µg/cm2, 500 g/ha: 5 μg/cm^2 (=500 g/ha)
Protocol: as §1
After the solvent has evaporated, each test tube is filled with 5-10 adult brown dog ticks (Rhipicephalus sanguineus), closed with a perforated lid and incubated in a lying position at room temperature and relative humidity. After 48 hours efficacy is determined. The ticks are patted on the ground of the tubes and are incubated on a heating plate at 45-50° C. for at most 5 minutes. Immotile or uncoordinated moving ticks, which are not able to escape the heat by climbing upwards, are marked as dead or moribund.
An efficacy of 100% means all ticks are dead or moribund; 0% means no ticks are dead or moribund.

[10] = system: brown planthopper (Nilaparvata lugens); assay: Nilaparvata lugens spray test; conditions: in Oryza sativa, 96 h
Protocol: Solvent: 78.0 parts by weight of acetone • • 1.5 parts by weight of dimethylformamide
Emulsifier: alkylarylpolyglycol ether
To produce a suitable preparation of active compound, 1 part by weight of active compound is mixed with the stated amount of solvents and is diluted with water, containing an emulsifier concentration of 1000 ppm, to the desired concentration. Further test concentrations are prepared by dilution with emulsifier containing water.
Rice plants (Oryza sativa) are sprayed with a preparation of the active ingredient of the desired concentration and the plants are infested with the brown planthopper (Nilaparvata lugens).
After 4 days mortality in % is determined. 100% means all planthoppers have been killed and 0% means none of the planthoppers have been killed.

CSc1nc(C(C)NC(=O)c2cc(Cl)cc(S(C)(=O)=O)c2)n(-c2ccc(Cl)cn2)n1 (racemic) [I-059, 3-chloro-N-[1-[2-(5-chloro-2-pyridyl)-5-methylsulfanyl-1,2,4-triazol-3-yl]ethyl]-5-methylsulfonyl-benzamide]
80%: pest or weed control at 5 µg/cm2 [3]
100%: pest or weed control at 5 µg/cm2 [1] | pest or weed control at 0.004 mg [2] | pest or weed control at 0.02 mg [2] | pest or weed control at 32 µg/disc, 100 g/ha [4] | pest or weed control at 160 µg/disc, 500 g/ha ([4]; 500 g/ha (=160 μg/well)) | mortality at 4 ppm [5] | mortality at 100 g/ha [6] | mortality at 500 g/ha [6] | mortality at 500 g/ha [7]

CC(NC(=O)c1cc(Cl)cc(C(F)(F)F)c1)c1nc(C#N)nn1-c1ccc(Cl)cn1 (racemic) [I-071, 3-chloro-N-[1-[2-(5-chloro-2-pyridyl)-5-cyano-1,2,4-triazol-3-yl]ethyl]-5-(trifluoromethyl)benzamide]
100%: pest or weed control at 0.004 mg [2] | pest or weed control at 0.02 mg [2]
80%: pest or weed control at 5 µg/cm2 [3]
90%: pest or weed control at 5 µg/cm2 [1]

CC(NC(=O)c1cc(Br)cc(Br)c1)c1nc(N)nn1-c1ccc(C(=O)N2CCOCC2)cn1 (racemic) [I-107, N-[1-[5-amino-2-[5-(morpholine-4-carbonyl)-2-pyridyl]-1,2,4-triazol-3-yl]ethyl]-3,5-dibromo-benzamide]
90%: pest or weed control at 5 µg/cm2 [3] | mortality at 4 ppm [5]

CC(NC(=O)c1cc(Cl)cc(C(F)(F)F)c1)c1nc(NC(=O)C2(Cl)CC2)nn1-c1ncccn1 (stereo not drawn) [I-022]
90%: pest or weed control at 5 µg/cm2 [1]
100%: pest or weed control at 0.004 mg [2] | pest or weed control at 5 µg/cm2 [3] | mortality at 100 ppm [8] | pest or weed control at 1 µg/cm2, 100 g/ha [9] | pest or weed control at 5 µg/cm2, 500 g/ha [9] | mortality at 4 ppm [5] | mortality at 100 g/ha [7]

CC(NC(=O)c1cc(Cl)cc(C(F)(F)F)c1)c1nc(C(N)=O)nn1-c1ccc(C#N)cn1 (stereo not drawn) [I-075]
100%: pest or weed control at 5 µg/cm2 [1] | pest or weed control at 0.004 mg [2] | mortality at 100 ppm [8] | pest or weed control at 32 µg/disc, 100 g/ha [4]
90%: pest or weed control at 5 µg/cm2 [3]

CC(NC(=O)c1cc(Br)cc(C(F)(F)F)c1)c1nc(N(C)C(=O)OC(C)(C)C)nn1-c1ncccn1 (stereo not drawn) [I-089]
90%: pest or weed control at 5 µg/cm2 [3]
100%: pest or weed control at 0.004 mg [2] | mortality at 100 ppm [8] | pest or weed control at 32 µg/disc, 100 g/ha [4] | mortality at 4 ppm [5] | mortality at 100 g/ha [7]

CC(=O)N(C)c1nc(C(C)NC(=O)c2cc(C(F)(F)F)cc(C(F)(F)F)c2)n(-c2ncccn2)n1 (stereo not drawn) [I-091]
100%: pest or weed control at 0.004 mg [2] | pest or weed control at 5 µg/cm2 [3] | mortality at 100 ppm [8] | pest or weed control at 32 µg/disc, 100 g/ha [4] | mortality at 4 ppm [5] | mortality at 100 g/ha [7]

CNc1nc(C(C)NC(=O)c2cc(Br)cc(Br)c2)n(-c2ncccn2)n1 (stereo not drawn) [I-100]
100%: pest or weed control at 5 µg/cm2 [1] | pest or weed control at 0.004 mg [2] | pest or weed control at 5 µg/cm2 [3] | mortality at 100 ppm [8] | pest or weed control at 1 µg/cm2, 100 g/ha [9] | pest or weed control at 5 µg/cm2, 500 g/ha [9] | pest or weed control at 32 µg/disc, 100 g/ha [4] | mortality at 4 ppm [5] | mortality at 100 g/ha [7]

CC(NC(=O)c1cc(Br)cc(C2(C(F)(F)F)CC2)c1)c1nc(N)nn1-c1ncccn1 (stereo not drawn) [I-112]
90%: pest or weed control at 5 µg/cm2 [3]
100%: pest or weed control at 5 µg/cm2 [1]

CC(NC(=O)c1cc(C(F)(F)F)cc(C(F)(F)F)c1)c1nc(N)nn1-c1ccc(C(=O)N2CCOCC2)cn1 (stereo not drawn) [I-115]
100%: pest or weed control at 5 µg/cm2 [1] | pest or weed control at 5 µg/cm2 [3] | pest or weed control at 1 µg/cm2, 100 g/ha [9] | pest or weed control at 5 µg/cm2, 500 g/ha [9] | mortality at 500 g/ha [6] | mortality at 100 g/ha [7]

C[C@H](NC(=O)c1cc(C(F)(F)F)cc(C(F)(F)F)c1)c1nc(N(C)C)nn1-c1ncc(Cl)cn1 [I-176]
100%: pest or weed control at 32 µg/disc, 100 g/ha [4] | mortality at 500 g/ha [6] | mortality at 500 g/ha [10] | mortality at 100 g/ha [7]

C[C@H](NC(=O)c1cc(OC(F)(F)F)cc(C2CC2)c1)c1nc(N(C)C)nn1-c1ncc(Cl)cn1 [I-177]
100%: pest or weed control at 32 µg/disc, 100 g/ha [4] | mortality at 500 g/ha [6] | mortality at 500 g/ha [10] | mortality at 100 g/ha [7]

CCS(=O)(=O)c1cc(OC(F)(F)F)cc(C(=O)N[C@@H](C)c2nc(NC)nn2-c2ncccn2)c1 [I-180]
100%: pest or weed control at 32 µg/disc, 100 g/ha [4] | mortality at 500 g/ha [6] | mortality at 500 g/ha [10] | mortality at 100 g/ha [7]

CNc1nc([C@H](C)NC(=O)c2cc(C3CC3)cc(S(=O)(=O)C(F)(F)F)c2)n(-c2ncccn2)n1 [I-183]
100%: pest or weed control at 32 µg/disc, 100 g/ha [4] | mortality at 500 g/ha [6] | mortality at 500 g/ha [10] | mortality at 100 g/ha [7]

CNc1nc([C@H](C)NC(=O)c2cc(Cl)cc(S(=O)(=O)C(F)(F)F)c2)n(-c2ncccn2)n1 [I-186]
100%: pest or weed control at 32 µg/disc, 100 g/ha [4] | mortality at 500 g/ha [6] | mortality at 500 g/ha [10] | mortality at 100 g/ha [7]

From patent US20230028441A1, “NOVEL HETEROARYL-TRIAZOLE COMPOUNDS AS PESTICIDES” (Bayer Aktiengesellschaft, priority 2019, published 2023)
